Experimental data taken from publication PMC6269737, “Effect of Honokiol on Cytochrome P450 and UDP-Glucuronosyltransferase Enzyme Activities in Human Liver Microsomes” (Molecules, 2013).

Tests used:
Assay in all cases: biochemical
CYP2B6 = target: T1, CYP2B6 (Homo sapiens, UniProt P20813); conditions: for IC50: IC50 (μM) of honokiol, Bupropion hydroxylation
T1 sequence (P20813 1-491): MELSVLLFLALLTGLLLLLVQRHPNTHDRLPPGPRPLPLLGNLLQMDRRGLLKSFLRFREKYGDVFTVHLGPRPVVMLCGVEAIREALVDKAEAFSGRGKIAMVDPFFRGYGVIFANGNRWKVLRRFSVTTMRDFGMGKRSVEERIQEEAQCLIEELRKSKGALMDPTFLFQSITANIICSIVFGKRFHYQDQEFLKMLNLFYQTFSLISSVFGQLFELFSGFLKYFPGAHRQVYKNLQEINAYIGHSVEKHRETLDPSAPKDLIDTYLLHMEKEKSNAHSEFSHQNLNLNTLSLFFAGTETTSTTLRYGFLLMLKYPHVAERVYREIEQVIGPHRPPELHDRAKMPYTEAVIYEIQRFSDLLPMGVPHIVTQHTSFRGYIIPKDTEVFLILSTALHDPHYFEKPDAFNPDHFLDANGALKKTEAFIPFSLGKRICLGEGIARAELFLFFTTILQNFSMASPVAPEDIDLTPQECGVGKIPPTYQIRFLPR
Experimental: (§1) The inhibitory potential (IC50 values) of honokiol on CYP activities was evaluated in pooled human liver microsomes using liquid chromatography-tandem mass spectrometry (LC-MS/MS). […] Honokiol was dissolved in acetonitrile. […] After a 3 min preincubation at 37 °C, the reactions were initiated by addition of an NADP generating system and incubated for 15 min at 37 °C in a shaking water bath. The reaction was then stopped by placement of the tubes on ice and adding 100 μL of ice-cold methanol containing internal standards (^13C2, ^15N-acetaminophen for acetaminophen and N-deethylamodiaquine, and d9-1-hydroxybufuralol for 4-hydroxydiclofenac, 4-hydroxybupropion, 7-hydroxycoumarin, 4-hydroxymephenytoin, 1'-hydroxybufuralol, and 1'-hydroxymidazolam). The incubation mixtures were then centrifuged at 13,000 × g for 4 min. All incubations were performed in triplicate, and average values were used.
(§2) The reaction was initiated by the addition of the cocktail containing seven CYP probe substrates and bupropion.
(§3) The metabolites formed from the seven CYP cocktail substrates were simultaneously determined according to our previously described LC-MS/MS method with minor modification; the concentration of 4-hydroxybupropion for CYP2B6 activity was quantified separately by LC-MS/MS. A tandem mass spectrometer (TSQ Quantum Access, Thermo Scientific, San Jose, CA, USA) coupled with a Nanospace SI-2 LC system (Tokyo, Japan) was used. The column and autosampler temperatures were 50 °C and 6 °C, respectively. The mass spectrometer was equipped with an electrospray ionization (ESI) source and operated in positive ion mode. The ESI source settings for ionization of the metabolites were as follows: capillary voltage, 4200 V; vaporizer temperature, 350 °C; capillary temperature 330 °C; sheath gas pressure, 35 psi; auxiliary gas pressure, 15 psi. Quantification was performed by selected reaction monitoring (SRM) of [M+H]^+ ions and the related product ions for each metabolite. […] Analytical data were processed using Xcalibur® software (Thermo Scientific).
(§4) The incubation mixtures were centrifuged at 13,000 × g for 4 min, and the supernatants were diluted as follows: dilution of 20 μL supernatant with 180 μL of 25% methanol for CYP2C8; dilution of 50 μL supernatant with 50 μL of water for CYP2C9, CYP2C19, CYP2D6, and CYP1A2; and dilution of 20 μL supernatant with 80 μL of water for CYP2B6. Aliquots (5 μL) of the diluted supernatants were then analyzed by LC-MS/MS.
(§5) The apparent kinetic parameters for inhibitory potential (Ki values) were estimated from the fitted curves using Enzyme Kinetics Ver. 1.1 software (Systat Software Inc.).

CYP2C19 = CYP2C19 (Homo sapiens, UniProt P33261); conditions: for IC50: IC50 (μM) of honokiol, S-Mephenytoin 4'-hydroxylation
Chain of CYP2C19 (P33261 whole entry): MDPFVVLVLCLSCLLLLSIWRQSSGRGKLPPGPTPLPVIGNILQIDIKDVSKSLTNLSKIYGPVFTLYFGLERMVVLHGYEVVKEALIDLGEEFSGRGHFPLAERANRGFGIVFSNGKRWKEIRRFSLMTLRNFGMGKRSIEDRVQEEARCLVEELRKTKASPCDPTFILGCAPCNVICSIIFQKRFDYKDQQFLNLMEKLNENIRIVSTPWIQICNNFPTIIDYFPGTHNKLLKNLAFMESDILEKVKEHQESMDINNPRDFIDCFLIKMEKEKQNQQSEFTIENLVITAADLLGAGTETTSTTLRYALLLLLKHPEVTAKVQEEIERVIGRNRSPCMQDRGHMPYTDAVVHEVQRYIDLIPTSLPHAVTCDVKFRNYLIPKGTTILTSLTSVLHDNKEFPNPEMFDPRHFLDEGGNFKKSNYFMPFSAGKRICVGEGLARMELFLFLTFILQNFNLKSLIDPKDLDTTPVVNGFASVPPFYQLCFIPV
Experimental: as §1, §2, §3, §4, §5

CYP2C8 = target: T2, CYP2C8 (Homo sapiens, UniProt P10632); conditions: for IC50: IC50 (μM) of honokiol, Amodiaquine N-deethylation
T2 sequence (P10632 1-490): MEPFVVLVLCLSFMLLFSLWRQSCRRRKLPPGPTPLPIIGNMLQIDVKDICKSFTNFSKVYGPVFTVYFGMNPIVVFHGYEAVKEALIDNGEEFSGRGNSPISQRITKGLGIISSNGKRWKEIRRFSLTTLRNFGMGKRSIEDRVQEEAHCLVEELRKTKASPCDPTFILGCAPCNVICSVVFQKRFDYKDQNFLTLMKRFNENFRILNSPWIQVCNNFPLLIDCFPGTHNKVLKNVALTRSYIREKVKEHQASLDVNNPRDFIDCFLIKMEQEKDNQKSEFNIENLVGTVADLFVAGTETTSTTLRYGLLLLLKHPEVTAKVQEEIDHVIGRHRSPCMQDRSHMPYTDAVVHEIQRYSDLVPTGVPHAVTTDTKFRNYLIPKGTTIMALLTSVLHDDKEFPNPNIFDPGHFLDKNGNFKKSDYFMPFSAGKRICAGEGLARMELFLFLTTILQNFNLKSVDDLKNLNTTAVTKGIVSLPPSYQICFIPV
Experimental: as §1, §2, §3, §4, §5

CYP2C9 = CYP2C9 (Homo sapiens, UniProt P11712); conditions: for IC50: IC50 (μM) of honokiol, Diclofenac 4-hydroxylation
Chain of CYP2C9 (P11712 whole entry): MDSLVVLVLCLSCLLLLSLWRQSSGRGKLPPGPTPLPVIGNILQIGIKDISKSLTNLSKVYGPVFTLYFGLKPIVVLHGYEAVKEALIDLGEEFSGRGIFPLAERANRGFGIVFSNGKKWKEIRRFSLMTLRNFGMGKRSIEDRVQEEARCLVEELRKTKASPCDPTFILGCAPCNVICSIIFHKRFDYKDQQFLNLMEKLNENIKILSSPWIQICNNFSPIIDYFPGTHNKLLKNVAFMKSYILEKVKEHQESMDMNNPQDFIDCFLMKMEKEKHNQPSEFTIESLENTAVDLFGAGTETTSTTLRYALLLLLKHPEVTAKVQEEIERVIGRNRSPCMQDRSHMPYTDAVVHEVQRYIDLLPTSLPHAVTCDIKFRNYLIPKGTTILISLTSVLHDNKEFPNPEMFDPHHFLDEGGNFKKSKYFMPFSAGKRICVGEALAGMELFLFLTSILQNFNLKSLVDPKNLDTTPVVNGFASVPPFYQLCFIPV
Experimental: as §1, §2, §3, §4, §5

CYP2D6 = CYP2D6 (Homo sapiens, UniProt P10635); conditions: for IC50: IC50 (μM) of honokiol, Bufuralol 1'-hydroxylation
Chain of CYP2D6 (P10635 whole entry): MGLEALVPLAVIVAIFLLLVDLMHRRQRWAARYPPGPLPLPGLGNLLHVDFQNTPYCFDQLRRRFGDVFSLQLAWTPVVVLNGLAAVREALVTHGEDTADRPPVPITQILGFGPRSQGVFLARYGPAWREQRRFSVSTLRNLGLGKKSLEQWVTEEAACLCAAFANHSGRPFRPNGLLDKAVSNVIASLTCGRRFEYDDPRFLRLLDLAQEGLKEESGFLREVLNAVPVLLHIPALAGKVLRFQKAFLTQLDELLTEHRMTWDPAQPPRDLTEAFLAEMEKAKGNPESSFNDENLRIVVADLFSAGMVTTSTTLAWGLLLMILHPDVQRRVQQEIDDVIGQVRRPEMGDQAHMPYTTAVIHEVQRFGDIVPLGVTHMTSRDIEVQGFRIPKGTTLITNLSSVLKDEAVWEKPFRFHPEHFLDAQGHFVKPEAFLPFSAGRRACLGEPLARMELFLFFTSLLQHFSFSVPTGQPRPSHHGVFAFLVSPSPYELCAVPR
Experimental: as §1, §2, §3, §4, §5

[1] = with preincubation, 30 min preincubation with NADPH

- Ki (CYP2B6): 17.5 µM
- IC50 (CYP2B6; no preincubation, 50 μM bupropion, pooled HLM (H161)): 13.8 µM
- IC50 (CYP2B6; [1]): 20.8 µM
- Ki (CYP2C19): 0.57 µM
- IC50 (CYP2C19; no preincubation, 100 μM [S]-mephenytoin, pooled HLM (H161)): 2.2 µM
- IC50 (CYP2C19; [1]): 2.9 µM
- Ki (CYP2C8): 4.9 µM
- IC50 (CYP2C8; no preincubation, 2.5 μM amodiaquine, pooled HLM (H161)): 8.9 µM
- IC50 (CYP2C8; [1]): 15.5 µM
- Ki (CYP2C9): 0.54 µM
- IC50 (CYP2C9; no preincubation, 10 μM diclofenac, pooled HLM (H161)): 4.1 µM
- IC50 (CYP2C9; [1]): 3.9 µM
- Ki (CYP2D6): 12 µM
- IC50 (CYP2D6; no preincubation, 5.0 μM bufuralol, pooled HLM (H161)): 14 µM
- IC50 (CYP2D6; [1]): 38.1 µM
Structure (SMILES): C=CCc1ccc(O)c(-c2ccc(O)c(CC=C)c2)c1 [honokiol, 2-(4-hydroxy-3-prop-2-enyl-phenyl)-4-prop-2-enyl-phenol]
